Source: paper PMC10714399, “Open Source Antibiotics: Simple Diarylimidazoles Are Potent against Methicillin-Resistant Staphylococcus aureus” (ACS Infectious Diseases, 2023)
Converted amounts (≈) assume the structure as drawn. “And” between values parts separate entries of the source, which are not always exact repeats. Identical values can stand only once. Like-named read-outs stand apart in the source and are kept apart here.

How the values were obtained:
[1] = tested on: Cryptococcus neoformans H99 ATCC 208821; experiment: CO-ADD antifungal assay, C. neoformans; assay type: cell-based; conditions: ATCC208821
Method: (§1) Hit Confirmation of active compounds by whole cell growth inhibition assays was conducted as an 8-point dose response to determine the Minimum Inhibitory Concentration (MIC), in duplicate (n=2). The inhibition of growth is measured against those microorganisms that […]
Included in the Hit Confirmation were 5 bacteria: Escherichia coli, Klebsiella pneumoniae, Acinetobacter baumannii, Pseudomonas aeruginosa and Staphylococcus aureus, and 2 fungi Candida albicans and Cryptococcus neoformans.
In addition to determining MIC, active compounds were counter screened for cytotoxicity against a human embryonic kidney cell line, HEK293, by determining their CC50 value. The compounds were also screened for haemolysis of human red blood cells.
(§2) Assay Parameters Bacteria Fungi HEK293 Haemolysis […]
(§3) Duplicate (n=2) Duplicate (n=2) Duplicate (n=2) Duplicate (n=2)
(§4) QC Control MIC: Control MIC: Control CC50: Control HC10:
(§5) Non-Binding Non-Binding TC, 384-well Polypropylene […]
Fungi strains were cultured for 3 days on Yeast Extract-Peptone Dextrose (YPD) agar at 30 °C. A yeast suspension of 1 x 10^6 to 5 x 10^6 CFU/mL (as determined by OD530) was prepared from five colonies. […]
In both cases, the percentage of growth inhibition was calculated for each well, using the negative control (media only) and positive control (fungi without inhibitors) on the same plate. […]
Reading Plates - Haemolysis Clear 384w Corning 3680 […]

[2] = tested on: Staphylococcus aureus NCTC 13373 (mecA-positive; methicillin-resistant); experiment: In vitro antibacterial activity, MIC (UCL School of Pharmacy assay), MRSA; assay type: cell-based; conditions: for MIC: Staphylococcus aureus
How it was run: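 Broth microdilution MIC in isosensitest broth; inoculum from overnight tryptone soya agar culture suspended in PBS to A600 0.1 (~1 × 10^8 CFU/mL), then diluted 1:100. Compounds tested as 2-fold series from 32 to 0.03 μg/mL, DMSO at most 2%; vancomycin as quality control.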

[3] = Rat liver microsome (RLM) metabolic stability (UNC); assay type: in vitro ADME; conditions: rat liver microsomes
Excerpt: Supplement id3c00286_si_002.xlsx, sheet "Series 2 Data" | column: RLM Clint (mL/min/kg) (UNC); RLM t1/2 (min) (UNC); RLM E (UNC)

[4] = In vitro metabolic stability, rat liver microsomes (Monash); assay type: in vitro ADME
Method: (§6) The metabolic stability assay was performed by incubating each test compound with a suspension of liver microsomes (0.4 mg/mL protein, 1 μM substrate, 37 °C). Microsomes were purchased from XenoTech. The metabolic reaction was initiated by the addition of an NADPH-regenerating system and quenched at various time points over a 60 min incubation by the addition of acetonitrile containing metolazone as an internal standard. Control samples (containing no NADPH) were included (quenched at 2, 30, and 60 min) to monitor for potential degradation in the absence of cofactor. […]
(§7) d) In Vitro Metabolic Stability
(§8) The metabolic stability assay was performed by incubating each test compound with a suspension of liver
(§9) microsomes (0.4 mg/mL, 37°C). The metabolic reaction was initiated by the addition of an NADPH-regenerating
(§10) system and quenched at various time points over a 60 minute incubation by the addition of acetonitrile containing
(§11) metolazone as internal standard. Control samples (containing no NADPH) were included (quenched at 2, 30 and 60
(§12) minutes) to monitor for potential degradation in the absence of cofactor.
(§13) The human liver microsomes used in this experiment were supplied by XenoTech, lot # 1710084.The rat liver
(§14) microsomes used in this experiment were supplied by XenoTech, lot # 1610290. Microsomal incubations were
(§15) performed at a substrate concentration of 1 µM.
(§16) Data analysis and interpretation:
(§17) Substrate depletion as a function of time was analysed as described by Obach (1999) Drug Metab. Dispos., 27:1350-
(§18) 1359. Intrinsic clearance (CLint) values were classified at the limits of low and high clearance bands based on a
(§19) rearrangement of the well stirred model of hepatic elimination. It should be noted that the potential impact of
(§20) compound binding (either in microsomes or in blood) on the relationship between in vitro intrinsic clearance and
(§21) hepatic clearance in vivo has not been accounted for in these studies.
(§22) In Vitro Intrinsic Clearance
(§23) Species (µL/min/mg protein)
(§24) Low Clearance High Clearance
(§25) Experimental results are tabulated on the following page(s).
(§26) (1 picture or pasted object on this page, not shown here)

[5] = Kinetic solubility estimation using nephelometry (Monash); assay type: physicochemical; conditions: for solubility kinetic at 30 min: kinetic from dmso stock
Method: Compound in DMSO was spiked into either pH 6.5 phosphate buffer or 0.01 M HCl (approximately pH 2.0) with the final DMSO concentration being 1%. […]
b) Kinetic Solubility Estimation using Nephelometry (SolpH)
Compound in DMSO was spiked into either pH 6.5 phosphate buffer or 0.01 M HCl (approx pH 2.0) with the final
DMSO concentration being 1%. After 30 minutes had elapsed, samples were then analysed via Nephelometry to
determine a solubility range. See Bevan and Lloyd (2000) Anal Chem, 72:1781-1787. […]
(§27) In Vitro Intrinsic Clearance […]
as §25, §26

[6] = Mouse liver microsome (MLM) metabolic stability (UNC); assay type: in vitro ADME
Excerpt: Supplement id3c00286_si_002.xlsx, sheet "Series 2 Data" | column: MLM Clint (mL/min/kg) (UNC); MLM t1/2 (min) (UNC); MLM E (UNC)

[7] = In vitro metabolic stability, human liver microsomes (Monash); assay type: in vitro ADME
Method: as §6, §7, §8, §9, §10, §11, §12, §13, §14, §15, §16, §17, §18, §19, §20, §21, §22, §23, §24, §25, §26

[8] = Distribution coefficient estimation using chromatography, gLogD (Monash); assay type: physicochemical
Excerpt: Partition coefficient values (LogD) of the test compounds were estimated at pH 7.4 by the correlation of their chromatographic retention properties against the characteristics of a series of standard compounds with known partition coefficient values. The method employed is a gradient HPLC-based derivation of the method developed by Lombardo.[42] […]
c) Distribution Coefficient Estimation using Chromatography (gLogDpH)
Partition coefficient values (LogD) of the test compounds were estimated at pH 7.4 by correlation of their
chromatographic retention properties against the characteristics of a series of standard compounds with known
partition coefficient values. […]
as §27, §25, §26

[9] = tested on: p38 kinase; design: method as in earlier work; conditions: cited from earlier work
[10] = tested on: Escherichia coli ATCC 25922; experiment: CO-ADD antibacterial assay, E. coli; assay type: cell-based
Method: as §1
(§28) Included in the Hit Confirmation were 5 bacteria: Escherichia coli, Klebsiella pneumoniae, Acinetobacter baumannii, Pseudomonas aeruginosa and Staphylococcus aureus, and 2 fungi Candida albicans and Cryptococcus neoformans. […]
as §2, §3, §4, §5
(§29) All bacteria were cultured in Cation-adjusted Mueller Hinton broth (CAMHB) at 37 °C overnight. […] The resultant mid-log phase cultures were diluted (CFU/mL measured by OD600), then added to each well of the compound containing plates, giving a cell density of 5×10^5 CFU/mL and a total volume of 50 µL. […]
(§30) Inhibition of bacterial growth was determined measuring absorbance at 600 nm (OD600), using a Tecan M1000 Pro monochromator plate reader. The percentage of growth inhibition was calculated for each well, using the negative control (media only) and positive control (bacteria without inhibitors) on the same plate as references. […]

[11] = tested on: Acinetobacter baumannii ATCC 19606; experiment: CO-ADD antibacterial assay, A. baumannii; assay type: cell-based
Method: as §1, §28, §2, §3, §4, §5, §29, §30

[12] = tested on: Pseudomonas aeruginosa ATCC 27853; experiment: CO-ADD antibacterial assay, P. aeruginosa; assay type: cell-based
Method: as §1, §28, §2, §3, §4, §5, §29, §30

[13] = tested on: Klebsiella pneumoniae ATCC 700603; experiment: CO-ADD antibacterial assay, K. pneumoniae; assay type: cell-based
Method: as §1, §28, §2, §3, §4, §5, §29, §30

[14] = NADPH, read-out: CLint, in vitro

## OC(Cn1cncn1)(Cn1cncn1)c1ccc(F)cc1F [Fluconazole]
[1]
  MIC: 8 µg/mL

## c1ccc(-c2nc3n(c2-c2ccc4c(c2)OCO4)CCC3)nc1 [OSA_000812]
[2]; UCL, read-out: MRSA MIC (UCL)
  MIC: 32 µg/mL (≈ 105 µM)
[3]
  CLint scaled: 142 mL/min/kg
  RLM E (UNC): 0.669
[3]; read-out: RLM t1/2 (UNC)
  half-life: 17.7 min
[4]; Monash
  RLM Clint (Monash): 59 µL/min/mg
  RLM t1/2 (Monash): 29 min
[5]; 0.01 M HCl, simulated gastric fluid, pH 2.0, read-out: Sol (pH 2.0) (Monash)
  solubility kinetic at 30 min: > 100 µg/mL
[5]; pH 6.5 phosphate buffer, pH 6.5, aqueous buffer, read-out: Sol (pH 6.5) (Monash)
  solubility kinetic at 30 min: 50 to 100 µg/mL (≈ 164 to 328 µM)
[6]; mouse liver microsomes
  MLM Clint (UNC): 677 mL/min/kg
  MLM E (UNC): 0.864 and 0.883
  MLM t1/2 (UNC): 8.3 min
[6]; mouse, liver microsomes
  CLint scaled: 569 mL/min/kg
[6]; mouse, liver microsomes, read-out: MLM t1/2 (UNC)
  half-life: 9.87 min
[7]; Monash
  HLM Clint (Monash): 28 µL/min/mg
  HLM t1/2 (Monash): 62 min
[8]; gradient HPLC retention against standard compounds, pH 7.4
  chromatographic logD: 1.5

## c1ccc(-c2nc3n(c2-c2ccc4c(c2)OCO4)CCC3)nc1 [compound 812]
[2]
  activity against MRSA, in words: MRSA-inactive
[2]; 16 h, read-out: MRSA MIC
  MIC: > 32 µg/mL
[2]; read-out: MRSA MIC
  MIC: 32 µg/mL (≈ 105 µM)
[4]; [14]
  microsomal CLint at 1 µM: 59 µL/min/mg
[4]; NADPH, read-out: T1/2
  half-life at 1 µM: 29 min
[5]; pH 6.5 phosphate buffer
  Sol 6.5: 50 to 100 µg/mL
[7]; [14]
  microsomal CLint at 1 µM: 28 µL/min/mg
[7]; NADPH, read-out: T1/2
  half-life at 1 µM: 62 min
[9]
  inhibition of p38 kinase: no inhibition
[8]
  gLogD at pH 7.4: 1.5

## Colistin - Sulfate
[10]
  MIC Escherichia coli: 0.125 µg/mL
[11]
  MIC Acinetobacter baumannii: 0.25 µg/mL
[12]
  MIC Pseudomonas aeruginosa: 0.25 µg/mL
[13]
  MIC Klebsiella: 0.25 µg/mL
